Assays:
S. sciuri = assay: MIC and MBC assays in Mueller-Hinton broth; assay type: cell-based, Staphylococcus sciuri
Procedure: (§1) The minimal inhibitory concentration (MIC) of various antimicrobials (amoxicillin-clavulanic acid, ampicillin, cefazolin, chloramphenicol, ciprofloxacin, clindamycin, erythromycin, gentamicin, imipenem, oxacillin, penicillin, rifampin, tetracycline, trimethoprim-sulfamethoxazole, and vancomycin) was determined via broth microdilution on a MicroScan Walkaway 40 PC20 Gram-positive combo-panel (Dade Behring, Sacramento, Calif.). Enrofloxacin and marbofloxacin susceptibilities were determined via Kirby-Bauer disk diffusion as these drugs were not available on the pre-configured commercial test panel. Fosmidomycin MIC assays were performed following clinical laboratory standards. Fosmidomycin (Sigma, St. Louis, USA) was filter-sterilized with a […] filter (Pall Corporation, Ann Arbor, USA) and was serially 2-fold diluted in a concentration range of 40.96-0.25 mg/mL. Tubes containing 1 mL Mueller-Hinton broth (Sigma) were inoculated with 5×10^5 colony forming units/mL. […] The MICS were determined by visual inspection. The minimum bactericidal concentration (MBC) was determined by plating 200 μL of the drug-treated cultures onto Mueller-Hinton agar plates (Remel, Lenexa, USA). The lowest concentration at which there was no growth after a 24-hour incubation at 37° C. was determined to be the MBC. […]

S. epidermidis [1] = assay: MIC and MBC assays in Mueller-Hinton broth; assay type: cell-based; conditions: Staphylococcus epidermidis, 37° C., 18-20 hours, read-out: MIC (concentration at which bacteria still grew normally)
Procedure: (§2) The minimal inhibitory concentration (MIC) of various antimicrobials (amoxicillin-clavulanic acid, ampicillin, cefazolin, chloramphenicol, ciprofloxacin, clindamycin, erythromycin, gentamicin, imipenem, oxacillin, penicillin, rifampin, tetracycline, trimethoprim-sulfamethoxazole, and vancomycin) was determined via broth microdilution on a MicroScan Walkaway 40 PC20 Gram-positive combo-panel (Dade Behring, Sacramento, Calif.). Enrofloxacin and marbofloxacin susceptibilities were determined via Kirby-Bauer disk diffusion as these drugs were not available on the pre-configured commercial test panel. Fosmidomycin MIC assays were performed following clinical laboratory standards. Fosmidomycin (Sigma, St. Louis, USA) was filter-sterilized with a […] filter (Pall Corporation, Ann Arbor, USA) and was serially 2-fold diluted in a concentration range of 40.96-0.25 mg/mL. Tubes containing 1 mL Mueller-Hinton broth (Sigma) were inoculated with 5×10^5 colony forming units/mL. 50 μL of the appropriate fosmidomycin concentration was added to each tube containing the starter culture, and was incubated at 37° C. overnight with shaking at 250 rpm for 18-20 hours. The MICS were determined by visual inspection. The minimum bactericidal concentration (MBC) was determined by plating 200 μL of the drug-treated cultures onto Mueller-Hinton agar plates (Remel, Lenexa, USA). The lowest concentration at which there was no growth after a 24-hour incubation at 37° C. was determined to be the MBC. For the plate-based fosmidomycin growth assay, overnight cultures of Staphylococcus species grown in Mueller-Hinton broth were sub-cultured to Mueller-Hinton agar plates containing 50 μg/mL fosmidomycin and were incubated for 24 hours at 37° C. All assays were performed and the results were interpreted using Clinical Laboratory Standards Institute guidelines (CLSI. (2013) Approved Standard-Fourth Edition. Clinical and Laboratory Standards Institute, Wayne, Pa., USA).

S. aureus [2] = assay: MIC and MBC assays in Mueller-Hinton broth; assay type: cell-based; conditions: Staphylococcus aureus, 37° C., 18-20 hours, read-out: MIC (concentration at which bacteria still grew normally)
Procedure: as §2

S. lugdunensis = assay: MIC and MBC assays in Mueller-Hinton broth; assay type: cell-based; conditions: Staphylococcus lugdunensis, 37° C., 18-20 hours, read-out: MIC (concentration at which bacteria still grew normally)
Procedure: as §2

S. aureus [3] = assay: plate-based fosmidomycin growth assay; assay type: cell-based, Staphylococcus aureus; conditions: 50 μg/mL fosmidomycin, Mueller-Hinton agar, 24 hours at 37° C.
Procedure: as §1

[4] = fosmidomycin safety trial for otic application in dogs; assay type: in vivo, dog; conditions: 100 micrograms in sterile water twice daily to both ears, 10 days
Procedure: FIGS. 7A-7C are a series of plots illustrating the outcome of a fosmidomycin safety trial for otic application in dogs. Five colony dogs were used in the safety study. Four of the five dogs were homozygous for ectodermal dysplasia, while the remaining dog was a carrier (heterozygote). Each dog was treated with 100 micrograms of fosmidomycin resuspended in water and applied twice daily to both ears. Pain and inflammation were assessed using the Short Form of the Glasgow Composite Pain Scale (FIG. 7A) and the Otitis Index Score (FIG. 7B and FIG. 7C), respectively. Clinical scoring was carried out prior to fosmidomycin treatment (“pre”), each day of drug application for 10 days, and one day after the cessation of treatment (“post”). Bars represent the mean and standard deviation of scores for the group of 5 dogs at each timepoint. Dotted lines represent field-standard thresholds for clinically significant pain or inflammation.
Five research dogs were used in a safety study testing otic application of fosmidomycin. Four of the five dogs were homozygous for ectodermal dysplasia, while the remaining dog was a carrier (heterozygote). […] Pain and inflammation were assessed using the Short Form of the Glasgow Composite Pain Scale (FIG. 7A) and the Otitis Index Score (FIG. 7B and FIG. 7C), respectively. […]

Plasmodium falciparum [5] = conditions: cited from earlier work
Plasmodium falciparum [6] = conditions: clinical trials, malaria, administered alone or in combination with clindamycin; cited from earlier work
S. pseudintermedius [7] = assay: plate-based fosmidomycin growth assay; assay type: cell-based, Staphylococcus pseudintermedius; conditions: 50 μg/mL fosmidomycin, Mueller-Hinton agar, 24 hours at 37° C.
Procedure: as §1

S. schleiferi [8] = assay: MIC and MBC assays in Mueller-Hinton broth; assay type: cell-based, Staphylococcus schleiferi
Procedure: as §2

S. pseudintermedius [9] = assay: MIC and MBC assays in Mueller-Hinton broth; assay type: cell-based, Staphylococcus pseudintermedius
Procedure: as §1

S. schleiferi [10] = assay: plate-based fosmidomycin growth assay; assay type: cell-based, Staphylococcus schleiferi; conditions: 50 μg/mL fosmidomycin, Mueller-Hinton agar, 24 hours at 37° C.
Procedure: as §1

S. epidermidis [11] = assay: plate-based fosmidomycin growth assay; assay type: cell-based, Staphylococcus epidermidis; conditions: 50 μg/mL fosmidomycin, Mueller-Hinton agar, 24 hours at 37° C.
Procedure: as §1

[12] = plated on Mueller-Hinton agar, 24-hour incubation at 37° C.

For `O=CN(O)CCCP(=O)(O)O` [fosmidomycin], the MIC (S. sciuri; Mammaliicoccus sciuri, Mueller-Hinton broth, 37° C., 18-20 hours, read-out: MIC (inhibited by concentrations as low as)) was at least 0.5 µg/mL, the “MBC (killed by concentrations of)” value (S. sciuri; [12]) was 4 to 16 µg/mL and the MIC (S. epidermidis [1]) was over 256 µg/mL. The MIC (S. aureus [2]) was over 256 µg/mL, the MIC (S. lugdunensis) was over 256 µg/mL and the “growth on agar plates containing fosmidomycin” value (from here on “growth”) (S. aureus [3]) was “grew”. The “inflammation score (Otitis Index Score)” value [4] was “clinically insignificant”, the “pain score (Short Form of the Glasgow Composite Pain Scale)” value [4] was “clinically insignificant” and the “killing the parasite in culture” value (Plasmodium falciparum [5]) was “effective”. For the same molecule, the cure rates (Plasmodium falciparum [6]) was 85-100%, the “growth” value (S. pseudintermedius [7]) was “completely restricted growth” and the “inhibition of multi-drug resistant strain” value (S. schleiferi [8]; S. schleiferi strain 1360-13, multi-drug resistant phenotype) was “inhibited”. For the same molecule, the MIC (S. schleiferi [8]; Staphylococcus schleiferi, Mueller-Hinton broth, 37° C., 18-20 hours, read-out: MIC (inhibited by concentrations as low as)) was at least 0.5 µg/mL, the “MBC (killed by concentrations of)” value (S. schleiferi [8]; [12]) was 4 to 16 µg/mL and the MIC (S. pseudintermedius [9]; Staphylococcus pseudintermedius, Mueller-Hinton broth, 37° C., 18-20 hours, read-out: MIC (inhibited by concentrations as low as)) was at least 0.5 µg/mL. For the same molecule, the “MBC (killed by concentrations of)” value (S. pseudintermedius [9]; [12]) was 4 to 16 µg/mL, the “growth” value (S. schleiferi [10]) was “completely restricted growth” and the “growth” value (S. epidermidis [11]) was “grew”.

From US10772900B2, “Drug target for treating veterinary infections and methods of using same” (THE TRUSTEES OF THE UNIVERSITY OF PENNSYLVANIA, priority 2016, dated 2020)
